Where two headings read alike, the source gives them in different places.
How the values were obtained:
[1] = tested on: OCT3/4, SOX2, KLF4 and NANOG; test: qPCR of pluripotent stem cell factors after ZSCAN4 knockdown; type: cell-based, human; settings: vs NTC-shRNA
Experimental: RNA extraction and Quantitative Reverse Transcriptase Polymerase Chain Reaction (qRT-PCR). One microgram of total RNA, isolated with Trizol, was reverse transcribed by Superscript III (Invitrogen) following the manufacturer's protocol. For qPCR, 10 ng cDNA was used per well in triplicate using SYBR green reaction mix (Roche) following the manufacturer's instructions with corresponding primers (Table 1). Reactions were run on the LightCycler 480 system (Roche). Fold induction was calculated by the delta-delta Ct method.
ZSCAN4 shRNAs were tested (19-mer sense, a hairpin loop, and 19-mer anti-sense oligos): shRNA1 (SEQ ID NO:3): 5′-[…] G-3′, shRNA2 (SEQ ID NO:4): 5′-[…] TG-3, shRNA3 (SEQ ID NO:5): 5′-[…] T-3 and two were cloned into the HuSH shRNA Plasmid pRFP-C-RS (Origene). Vectors were stably transfected into Tu167 or 012SCC cells by Effectene (QIAGEN) according to the manufacturer's protocol. As controls, isogenic cell lines were also generated expressing a non-targeting control shRNA (NTC-shRNA) or an Empty vector (same vector without an shRNA cassette). Cell lines were selected with 1 μg/ml Puromycin (ThermoFisher Scientific). Knockdown was confirmed by immunostaining and by qPCR.
Next, we used two of the shRNA sequences (shRNA1 and shRNA2) to generate stable knockdown cell lines (in Tu167 and 012SCC cells). Isogenic cells for each cell line with NTC-shRNA, or empty vector were used as controls. […] Our results further indicate a decrease in the CSC markers BMI1 and EZH2 (FIG. 5C).

[2] = tested on: ZSCAN4 depleted Tu167 cells; settings: increasing doses, ZSCAN4 depleted Tu167 cells compared to isogenic NTC shRNA cells, MTT
From the text: FIG. 14. […] All data shown as mean±S.E.M. observed in triplicate in at least three independent experiments. Asterisks indicate: *p<0.05, **p<0.01, ***p<0.001.
Another hallmark of CSCs is multi-drug resistance, a major factor contributing to cancer recurrence. Therefore, we examined the role of ZSCAN4 in response to genotoxic drugs. To define the effect of ZSCAN4 on drug resistance, we measured cell viability after increasing doses of the DNA damaging drugs in ZSCAN4 depleted and control Tu167 cells.

[3] = tested on: tet-ZSCAN4 cells; test: Dox-regulated ZSCAN4 induction and clearance, immunoblot; type: cell-based, human
Experimental: FIG. 9. A, An illustration of the tet-ZSCAN4 expression vector. B, Image of tet-ZSCAN4 (Tu167) cells showing expression of GFP. C, Immunoblot analyses indicate ZSCAN4 is tightly regulated by Dox and localizes to the nucleus; Controls: LDH (cytosol), Lamin-B (nucleus). D, Doxycycline addition to the culture medium (Dox+) induces ZSCAN4 within 6 hours.
Immunoblot Assays. Cytosolic proteins were extracted by Cytoskeleton buffer (10 mM PIPES, 300 mM sucrose, 100 mM NaCl, 3 mM MgCl2, 1 mM EGTA and 0.5% Triton X100), and nucleoplasm fraction was isolated. Next, pellets were lysed in urea solution (8 M Urea in 0.01 Tris pH 8+0.1M NaH2PO4) and sonicated. Samples were electrophoresed in polyacrylamide gels. PVDF membranes were blocked with 5% nonfat milk or Superblock (Thermo Fisher Scientific) for 1 hour, then incubated overnight at 4° C. with the indicated primary antibodies in blocking solution (Table 2). Membranes were washed and incubated with secondary antibodies (1:5000) for 1 hour. Secondary antibodies were visualized by ECL Chemiluminescence (ThermoFisher Scientific). […]

For “shRNA1: ZSCAN4 shRNA, SEQ ID NO:3: 5′-GAGAACGGTCCTAGGCCTGTCAAGAGGAGAACGGTCCTAGGCCTG-3′”, the “expression of OCT3/4, SOX2, KLF4 and NANOG” value (“expression of OCT3/4, SOX2” below) ([1]; 012SCC stable knockdown cells) was “significant downregulation”, the “expression of OCT3/4, SOX2” value ([1]; 012SCC stable knockdown cells, listed as shRNA 1) was “decreased expression” and the “expression of OCT3/4, SOX2” value ([1]; Tu167 stable knockdown cells) was “significant downregulation”. The “expression of OCT3/4, SOX2” value ([1]; Tu167 stable knockdown cells, listed as shRNA 1) was “decreased expression”.
With `N.N.[Cl][Pt][Cl]` [CPT, Cisplatin] the cell viability [2] was “significantly decreased cell viability” and the cell viability ([2]; listed as Cisplatin) was “hypersensitivity”.
In the case of “shRNA2: ZSCAN4 shRNA, SEQ ID NO:4: 5′-GATATCAGACCTACGGGTGTCAAGAGGATATCAGACCTACGGGTG-3′”, the “expression of OCT3/4, SOX2” value ([1]; 012SCC stable knockdown cells) is reported as “significant downregulation”, the “expression of OCT3/4, SOX2” value ([1]; 012SCC stable knockdown cells, listed as shRNA 2) is reported as “decreased expression” and the “expression of OCT3/4, SOX2” value ([1]; Tu167 stable knockdown cells) is reported as “significant downregulation”. The “expression of OCT3/4, SOX2” value ([1]; Tu167 stable knockdown cells, listed as shRNA 2) was “decreased expression”.
In the case of `C[C@H]1c2cccc(O)c2C(=O)C2=C(O)[C@]3(O)C(=O)C(C(N)=O)=C(O)[C@@H](N(C)C)[C@@H]3[C@@H](O)[C@@H]21` [Dox, Doxycycline], the “time until ZSCAN4 is detectable after addition of Dox to the medium” value [3] is reported as ≤ 6 h.
In the case of Bleomycin [BLM], the cell viability [2] is reported as “dramatically reduced cell viability” and the cell viability ([2]; listed as Bleomycin) is reported as “hypersensitivity”.
